CC1=CC(=O)c2ccccc2C1=O
solubility (mole fraction)
Settings	in 1,2-dichloroethane	in acetone	in acetonitrile	in cyclohexane	in dichloromethane	in isopropanol	in methanol	in methyl acetate	in n-butanol	in n-propanol
278.15 K	0.0879	0.0305	0.016	–	0.111	0.00291	0.00285	0.0427	0.00314	0.00343
283.15 K	0.108	0.0381	0.0197	0.00329	0.128	0.00373	0.00335	0.0481	0.00417	0.00426
288.15 K	0.12	0.0439	0.027	0.00417	0.148	0.0048	0.00396	0.0595	0.0057	0.00564
293.15 K	0.142	0.0534	0.0326	0.00514	0.169	0.00588	0.00484	0.0718	0.00742	0.00685
298.15 K	0.159	0.0669	0.0403	0.00673	0.193	0.00764	0.00606	0.0854	0.00994	0.00838
303.15 K	0.187	0.0809	0.0491	0.00848	0.219	0.0096	0.00709	0.105	0.0127	0.01
308.15 K	0.21	0.0983	0.0609	0.0103	0.247	0.0122	0.00827	0.12	0.0169	0.0122
313.15 K	0.243	0.118	0.0737	0.0131	0.277	0.0153	0.00975	0.148	0.0223	0.0143

From BigSolDB 2.1
